# Data: PMC5620277, “The histone methyltransferase EZH2 as a druggable target in SHH medulloblastoma cancer stem cells” (Oncotarget, 2017)
# Like-named read-outs stand apart in the source and are kept apart here.
# Columns and labels:
# mMB-SLCs = assay: Cell viability, MTS assay, mMB-SLCs; type: cell-based, mouse
# Description: In both cell lines, we determined the lowest useful dose of MC3629 (5 μM) and the minimum effective time (48 h) (Figure 2D, 2E and Supplementary Figure 4A and 4B for data at 24 and 72 h). We next evaluated the performance of MC3629 on MB-SLCs in terms of cell viability in regards to other EZH2i in use, confirming the dose selection (Supplementary Figure 4C).
# (§1) To evaluate cell viability cells were plated at a density of 5×10^3 cells/well in 96-well plates and were incubated with MTS solution (CellTiter 96® AQueous One Solution Promega).
# [1] = test system: DAOY-SLCs orthotopic tumors (XT-MB); assay: Xenograft DAOY-SLCs orthotopic tumors (XT-MB) in nude mice; type: in vivo, mouse; details: 20 μMoles/Kg i.p. twice a week for 3 weeks
# Description: Next, we generated xenograft DAOY-SLCs orthotopic tumors (XT-MB) in nude mice that grew as tumor masses with the characteristics of MBs.
# DAOY-SLCs were stereotaxically implanted into the cerebellum of nude mice by using the following coordinates according to the atlas of Franklin and Paxinos: 6.6 mm posterior to the bregma; 1 mm lateral to the midline; and 2 mm ventral from the surface of skull of mice, under ketamine (100 mg/kg, i.p.)/xylazine (10 mg/kg, i.p.) anesthesia. Cells (2×10^5 per 3 μl) were implanted at an infusion rate of 1 μl/min. Mice were separated into two groups. Group 1 (n=8) was intraperitoneally treated with MC3629 (20 μMoles/Kg) suspended in 10% (2-Hydroxypropyl)-β-cyclodextrin +1%DMSO (Sigma), Group 2 (n=8) was treated with 10% (2-Hydroxypropyl)-β-cyclodextrin +1%DMSO (Sigma). After 21 days of treatment, animals were sacrificed and brains were formalin fixed and paraffin embedded. Brain tumor volume calculation: Serial thick coronal sections (2 μm) starting from mesencephalon to the end of cerebellum were performed. The analysis was performed on 20 sections, sampled every 40 μm on the horizontal plan of the cerebellum, in which the tumor was identified and outlined at 2.5X magnification.
# Every 40 μm of brain slice, hematoxylin and eosin (H&E) staining was performed. Tumor area of every slice was evaluated with a microscope (Axio Imager M1 microscope) equipped with a motorized stage and software Image Pro Plus 6.2. The following formula was used to calculate brain tumor volume: tumor volume = sum of (measured area for each slice x slice thickness x sampling frequency).
# Paraffin-embedded sections were deparaffinized, and stained with either H&E or immunohistochemical stains as specified. Heat-induced epitope retrieval was performed with citrate buffer pH 6. Sections were incubated with ki67 primary antibody (Thermo Scientific) for 1 h. Ki67 expression was expressed as percentages of total cells with labeled nuclei.
# EZH2/PRC2 = molecular target: T1, EZH2/PRC2 (Homo sapiens, UniProt Q15910); assay: EZH2/PRC2 cell free enzymatic assay (3H-SAM, filter-paper detection); type: biochemical
# T1 construct: (amino acids 2-end) with N-terminal His tag; His tag (N); host or cells: baculovirus expression system
# Description: MC3629 was tested in the cell free enzymatic assay (EZH2/PRC2) in 10-dose IC50 mode with 2-fold serial dilution starting from 400 μM solution, using various histone substrates (histone H3/H4 octamer, histone H3/H4 tetramer, histone H3, and core histone) and SAM as the co-substrate. […] (Figure 2B, and Supplementary Figure 2).
# Reagents: Reaction buffer; 50 mM Tris-HCl (pH 8.0), 50 mM NaCl, 1 mM EDTA, 1 mM DTT, 1 mM PMSF, 1% DMSO. Reaction Conditions: EZH2: Complex of human EZH2 (GenBank Accession No. NM_004456), (amino acids 2-end) with N-terminal His tag, MW= 86 kDa, human EED (NM_003797) (a-a 2-end) with N-terminal Flag tag, MW= 51 kDa, human SUZ12 (NM_015355) (a-a 2-end) with N-terminal His tag, MW = 87 kDa, Human AEBP2 (NM_153207) (a-a 2-end) with N-terminal His tag, MW= 53 kDa, and human RbAp48 (NM_005610) (a-a 2-end) with N-terminal His tag, MW = 48 kDa, co-expressed in baculovirus expression system. Substrate: 5 μM histone H3/H4 tetramer. Methyl donor: 1 μM S-adenosyl-L-[methyl-^3H]methionine (^3H-SAM). Enzyme: 100 nM EZH2 complex. Reaction Procedure: the indicated substrate was dissolved in freshly prepared Reaction Buffer; EZH2 was delivered into the substrate solution and mixed gently. The compound was dissolved in DMSO to a stock of 20 mM and was tested in a 10-dose IC50 mode with 2-fold serial dilution starting at 400 μM. The compound was delivered in DMSO into the EZH2 reaction mixture by using Acoustic Technology (Echo 550, LabCyte Inc. Sunnyvale, CA) in nanoliter range, and incubated for 15 min; ^3H-SAM was delivered into the reaction mixture to initiate the reaction; the reaction mixture was incubated for 1 h at 30°C and then delivered to filter-paper for detection; data were analyzed using Excel and GraphPad Prism 5 software for IC50 curve fits. For SAM competition experiments, the same procedure was used with different SAM concentration (1, 2.5. 5, and 10 μM) and H3/H4 octamer as the substrate.
# [2] = test system: H3K27me3 in cerebellum and brain; assay: H3K27me3 levels in cerebellum and brain of wild type mice after i.p. treatment; type: in vivo, mouse
# Description: CD1 wild-type mice were treated intra-peritoneally with 20 μMoles/Kg of MC3629 (n=8 for each group). Treatment was performed at the age of 8 and 10 days post natal and mice were sacrificed at 12 days post natal. Brain and cerebellum tissues were collected for analysis.
# DAOY cells = assay: Western Blot of H3K27me3 and PCNA in DAOY cells; type: cell-based; details: 5 μM, 48 h
# Description: as §1
# Western blots were performed according to standard procedures. Briefly, protein lysates were prepared using RIPA buffer with fresh protease inhibitors. Lysates were separated on SDS polyacrylamide gels. Proteins were transferred on nitrocellulose membrane (0.45 micron) (PerkinElmer). Membranes were blocked for 1 h at room temperature in 5% nonfat dry milk and incubated overnight at 4°C with antibodies against EZH2 (4905S Cell signaling), H3K27me3 (07-449 Millipore), PCNA (2586 Cell signaling), ACTIN (I-19 sc-1616; Santa Cruz Biotechnology), GAPDH (ab9484, Abcam), cleaved CSP-3 (D-175 9661S; Cell Signaling) and H3 (ab1971, Abcam). HRP-conjugated secondary antibodies (Santa Cruz Biotechnology) were used in combination with enhanced chemiluminescence (ECL Amersham).
smiles,measurement,setting,value
"Cc1cc(C)c(CNC(=O)c2cnn(-c3ccccc3)c2C)c(=O)[nH]1 [MC3629, N-((4,6-dimethyl-2-oxo-1,2-dihydropyridin-3-yl)methyl)-5-methyl-1-phenyl-1H-pyrazole-4-carboxamide]","minimum effective time, cell viability",mMB-SLCs,48 h
same,"lowest useful dose, cell viability",mMB-SLCs; dose- and time-dependent experiments,5 µM
same,H3K27me3 in tumor xenografts,[1]; Western Blot,reduction
same,NANOG protein in tumors,[1]; Western Blot,significantly lower levels
same,"apoptosis, level of cleaved caspase 3 in XT-MB",[1]; Western Blot,induction of apoptosis
same,proliferating Ki67-positive cells in tumors,[1]; immunostaining,significant reduction
same,XT-MB growth (xenograft volume),[1]; nude mice,significantly impaired
same,"mechanism of inhibition, SAM competition experiments","EZH2/PRC2; histone H3/H4 octamer substrate, SAM 1, 2.5, 5, 10 μM",SAM-dependent mechanism of inhibition
same,IC50,"EZH2/PRC2; histone H3/H4 tetramer substrate, value printed in Figure 2B, read-out: IC50, EZH2/PRC2",5.27 µM
same,IC50,"EZH2/PRC2; range over histone substrates (histone H3/H4 octamer, H3/H4 tetramer, histone H3, core histone), SAM co-substrate, 10-dose, 2-fold dilution from 400 μM, read-out: IC50 values, EZH2/PRC2",5.27 to 15.4 µM
same,H3K27me3 levels in brain,[2]; 20 μMol/Kg intra-peritoneal,reduced levels
same,H3K27me3 levels in cerebellum,"[2]; 20 μMol/Kg intra-peritoneal, twice/week",significant reduction
same,ability to cross the BBB in vivo,"[2]; inferred from reduced H3K27me3 in cerebellum and brain, 20 μMol/Kg i.p.",crosses the BBB
same,H3K27me3 and PCNA levels,DAOY cells,impaired
